Test results reported in patent US20080076729A1, “Interferon-beta gene therapy using an improved, regulated expression system” (Schering Aktiengesellachaft, priority 2005, published 2008).

How the values were obtained:
SJL mice with acute EAE = assay: Mouse acute EAE model, daily clinical scoring; assay type: in vivo; details: Mesopram 9 mg/kg, Prednisolone 2.5 mg/kg, IP twice daily
GAL-4 DBS = details: read-out: Kd for binding; cited from earlier work

| Compound | clinical scores of EAE, positive controls (SJL mice with acute EAE; first study) | clinical scores of EAE, positive controls (SJL mice with acute EAE; second study) | Kd (GAL-4 DBS) |
| --- | --- | --- | --- |
| CCCOc1cc([C@]2(C)CNC(=O)O2)ccc1OC [Mesopram, reference compound] | significantly decreased clinical scores | significantly decreased clinical scores |  |
| C[C@]12C=CC(=O)C=C1CC[C@@H]1[C@@H]2[C@@H](O)C[C@@]2(C)[C@H]1CC[C@]2(O)C(=O)CO [Prednisolone, reference compound] | significantly decreased clinical scores | significantly decreased clinical scores |  |
| GAL-4 residues 1-100: N-terminal DNA binding fragment of yeast GAL-4 protein |  |  | 3 nM |
